According to US7432288B2, “Pyrrole-2,5-dione derivatives as Liver X receptor modulators” (AstraZeneca AB, priority 2003, dated 2008):

Target: T1, LXRalpha and/or beta (human LXR ligand binding domain)
T1 construct: fused on or other part: His-tag (6xHis) on the LXR-LBD
Assay: Co-activator recruitment assay (time-resolved fluorescence, SRC-1 peptide)
Format: biochemical
Settings: LXR subtype (alpha or beta) not stated for these values; 22-R Hydroxycholesterol at 50 μM as 100% control; read-out: EC50 in coactivator recruitment assays
Text: The Ligand Binding Domain (LBD) of human LXRalpha (amino acid 205-447) and LXRbeta (amino acid 216-461) was produced by recombinant techniques in E coli. A fragment of the human Steroid Receptor Co-Activator-1 (SRC-1) was produced as a synthetic peptide. An anti-6His-antibody coupled with Europium (Eu^3+) was used to recognize the His-tag on the LXR-LBD and Allophycocyanin (APC) coupled to streptavidin was used to recognize the biotinylated SRC-1. Agonist binding to LXRalpha or LXRbeta enhances the affinity of LXR towards SRC-1 and thereby brings Eu^3+ and APC in close proximity. Eu^3+ is excited at 337 nm and emitts light at 620 nm. This emission, when in close proximity, excites APC to emit light at 665 nm.
Dilution plates with compounds in DMSO were further diluted in buffer {20 mM [Tris(hydroxymethyl)aminomethane] pH 7.5, 0.125% CHAPS {3-[(3-Cholamidopropyl)dimethylammonio]-1-propanesulfonate}, 2 mM DTT (Dithiothreitol) and 0.05% BSA (Bovine Serum Albumin)} in order to reduce DMSO concentration, 0.5 μl to 13.5 μl. To this, 6 μl assay mix was added and the plates (384-well V-groove plates) were incubated at room temperature for 60 to 80 min. […] Time-resolved fluorescence readings were done in a Wallac Victor reader at 665 nm followed by reading at 615 nm. […]

**Q.** With `COc1ccc(NC2=C(c3ccccc3)C(=O)N(Cc3ccc(N(C)C)cc3)C2=O)cc1` [Example 13, 1-[4-(Dimethylamino)benzyl]-3-[(4-methoxyphenyl)amino]-4-phenyl-1H-pyrrole-2,5-dione] as the molecule, how does the EC50 read?
**A.** 150 nM

**Q.** With `COc1ccc(NC2=C(c3ccccc3)C(=O)N(Cc3cc(C)on3)C2=O)cc1` [Example 22, 3-[(4-Methoxyphenyl)amino]-1-[(5-methylisoxazol-3-yl)methyl]-4-phenyl-1H-pyrrole-2,5-dione] as the molecule, how does the EC50 read?
**A.** 110 nM
